Test results taken from patent US20250282799A1, “SUBSTITUTED PYRIDO[4,3-d]PYRIMIDINES AS KRAS MODULATORS” (Alterome Therapeutics, Inc., priority 2023, published 2025).

System: KRAS G12V dependent lung adenocarcinoma cell line, NCI-H441
Assay: Cellular pERK (Thr202/Tyr204) FRET/HTRF assay
Assay type: cell-based
Details: Homo sapiens, NCI-H441, cellular pERK (Thr202/Tyr204) HTRF, NCI-H441 cells
Outline: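 IC50 reflects inhibition of ERK1/2 Thr202/Tyr204 phosphorylation, quantified by HTRF after a 1 hr treatment of KRAS G12V-driven NCI-H441 cells. DMSO served as negative control.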

SMILES	IC50
C#Cc1c(F)ccc2cccc(-c3ncc4c(N5CCOC[C@H]6[C@H](F)[C@H]65)nc(OC[C@]56CC(=C)CN5CCC65CC5)nc4c3F)c12 [Example 166, (1S,7S,8S)-2-(7-(8-Ethynyl-7-fluoronaphthalen-1-yl)-8-fluoro-2-(((R)-6′-methylenetetrahydrospiro[cyclopropane-1,1′-pyrrolizin]-7a′(5′H)-yl)methoxy)pyrido[4,3-d]pyrimidin-4-yl)-8-fluoro-5-oxa-2-azabicyclo[5.1.0]octane]	< 0.05 µM
[2H]C([2H])(Oc1nc(N2CCOC[C@H]3[C@H](F)[C@H]32)c2cnc(-c3cc(N)c(F)c(C)c3C(F)(F)F)c(F)c2n1)[C@@]12CCCN1C[C@H](F)C2 [Example 167, 2-Fluoro-5-(8-fluoro-4-((1S,7S,8S)-8-fluoro-5-oxa-2-azabicyclo[5.1.0]octan-2-yl)-2-(((2R,7aS)-2-fluorotetrahydro-1H-pyrrolizin-7a(5H)-yl)methoxy-d2)pyrido[4,3-d]pyrimidin-7-yl)-3-methyl-4-(trifluoromethyl) aniline]	< 0.05 µM
[2H]C([2H])(Oc1nc(N2CCOC[C@H]3[C@H](F)[C@H]32)c2cnc(-c3cc(N)cc(C)c3C(F)(F)F)c(F)c2n1)[C@@]12CCCN1C[C@H](F)C2 [Example 168, 3-(8-fluoro-4-((1S,7S,8S)-8-fluoro-5-oxa-2-azabicyclo[5.1.0]octan-2-yl)-2-(((2R,7aS)-2-fluorotetrahydro-1H-pyrrolizin-7a(5H)-yl)methoxy-d2)pyrido[4,3-d]pyrimidin-7-yl)-5-methyl-4-(trifluoromethyl)aniline]	0.5 to 10 µM
[2H]C([2H])(Oc1nc(N2CCOC[C@H]3[C@H](F)[C@H]32)c2cc(F)c(-c3cc(N)cc(C)c3C(F)(F)F)c(F)c2n1)[C@@]12CCCN1C[C@H](F)C2 [Example 169, 3-(6,8-difluoro-4-((1S,7S,8S)-8-fluoro-5-oxa-2-azabicyclo[5.1.0]octan-2-yl)-2-(((2R,7aS)-2-fluorotetrahydro-1H-pyrrolizin-7a(5H)-yl)methoxy-d2)quinazolin-7-yl)-5-methyl-4-(trifluoromethyl)aniline]	0.5 to 10 µM
C#Cc1c(F)ccc2cc(N)cc(-c3ncc4c(N5CCOC[C@H]6[C@H](F)[C@H]65)nc(OC[C@]56CC(=C)CN5CCC65CC5)nc4c3F)c12 [Example 171, 5-Ethynyl-6-fluoro-4-(8-fluoro-4-((1S,7S,8S)-8-fluoro-5-oxa-2-azabicyclo[5.1.0]octan-2-yl)-2-(((R)-6′-methylenetetrahydrospiro[cyclopropane-1,1′-pyrrolizin]-7a′(5′H)-yl)methoxy)pyrido[4,3-d]pyrimidin-7-yl)naphthalen-2-amine]	< 0.05 µM
[2H]C([2H])([2H])Oc1c(F)cc(F)c2cc(N)cc(-c3ncc4c(N5CCOC[C@H]6[C@H](F)[C@H]65)nc(OC[C@@]56CCCN5C/C(=C\F)C6)nc4c3F)c12 [Example 172, 6,8-difluoro-4-(8-fluoro-4-((1S,7S,8S)-8-fluoro-5-oxa-2-azabicyclo[5.1.0]octan-2-yl)-2-(((S,Z)-2-(fluoromethylene)tetrahydro-1H-pyrrolizin-7a(5H)-yl)methoxy)pyrido[4,3-d]pyrimidin-7-yl)-5-(methoxy-d3)naphthalen-2-amine]	< 0.05 µM
[2H]C([2H])(F)Oc1c(F)cc(F)c2cc(N)cc(-c3ncc4c(N5CCCC[C@H]6[C@H](F)[C@H]65)nc(OC([2H])([2H])[C@@]56CCCN5C[C@H](F)C6)nc4c3F)c12 [Example 173, 6,8-difluoro-4-(8-fluoro-4-((1S,7R,8S)-8-fluoro-2-azabicyclo[5.1.0]octan-2-yl)-2-(((2R,7aS)-2-fluorotetrahydro-1H-pyrrolizin-7a(5H)-yl)methoxy-d2)pyrido[4,3-d]pyrimidin-7-yl)-5-(fluoromethoxy-d2)naphthalen-2-amine]	< 0.05 µM
[2H]C([2H])(Oc1nc(N2CC=CC[C@H]3[C@H](F)[C@H]32)c2cnc(-c3cc(N)cc4ccc(F)c(C#C)c34)c(F)c2n1)[C@@]12CCCN1C[C@H](F)C2 [Example 174, 5-Ethynyl-6-fluoro-4-(8-fluoro-4-((1S,7R,8S)-8-fluoro-2-azabicyclo[5.1.0]oct-4-en-2-yl)-2-(((2R,7aS)-2-fluorotetrahydro-1H-pyrrolizin-7a(5H)-yl)methoxy-d2)pyrido[4,3-d]pyrimidin-7-yl)naphthalen-2-amine]	< 0.05 µM
[2H]C([2H])(Oc1nc(N2CCOC[C@H]3[C@H](F)[C@H]32)c2cc(F)c(-c3nc(N)cc(C)c3C(F)(F)F)c(F)c2n1)[C@@]12CCCN1C[C@H](F)C2 [Example 175, 6-(6,8-difluoro-4-((1S,7S,8S)-8-fluoro-5-oxa-2-azabicyclo[5.1.0]octan-2-yl)-2-(((2R,7aS)-2-fluorotetrahydro-1H-pyrrolizin-7a(5H)-yl)methoxy-d2)quinazolin-7-yl)-4-methyl-5-(trifluoromethyl)pyridin-2-amine]	0.05 to 0.5 µM
[2H]C([2H])(Oc1nc(N2CCOC[C@@H]3[C@@H](F)[C@@H]32)c2cc(F)c(-c3nc(N)cc(C)c3C(F)(F)F)c(F)c2n1)[C@@]12CCCN1C[C@H](F)C2 [Example 176, 6-(6,8-difluoro-4-((1R,7R,8R)-8-fluoro-5-oxa-2-azabicyclo[5.1.0]octan-2-yl)-2-(((2R,7aS)-2-fluorotetrahydro-1H-pyrrolizin-7a(5H)-yl)methoxy-d2)quinazolin-7-yl)-4-methyl-5-(trifluoromethyl)pyridin-2-amine]	0.5 to 10 µM
[2H]C([2H])(Oc1nc(N2CCOC[C@H]3[C@H](F)[C@H]32)c2cc(F)c(-c3cc(N)c(F)c(C)c3C(F)(F)F)c(F)c2n1)[C@@]12CCCN1C[C@H](F)C2 [Example 177, 5-(6,8-difluoro-4-((1S,7S,8S)-8-fluoro-5-oxa-2-azabicyclo[5.1.0]octan-2-yl)-2-(((2R,7aS)-2-fluorotetrahydro-1H-pyrrolizin-7a(5H)-yl)methoxy-d2)quinazolin-7-yl)-2-fluoro-3-methyl-4-(trifluoromethyl)aniline]	< 0.05 µM
[2H]C([2H])(Oc1nc(N2CCOC[C@@H]3[C@@H](F)[C@@H]32)c2cc(F)c(-c3cc(N)c(F)c(C)c3C(F)(F)F)c(F)c2n1)[C@@]12CCCN1C[C@H](F)C2 [Example 178, 5-(6,8-difluoro-4-((1R,7R,8R)-8-fluoro-5-oxa-2-azabicyclo[5.1.0]octan-2-yl)-2-(((2R,7aS)-2-fluorotetrahydro-1H-pyrrolizin-7a(5H)-yl)methoxy-d2)quinazolin-7-yl)-2-fluoro-3-methyl-4-(trifluoromethyl)aniline]	0.5 to 10 µM
[2H]C([2H])(Oc1nc(N2CCOC[C@H]3[C@H](F)[C@H]32)c2cc(Cl)c(-c3cc(N)cc(C)c3C(F)(F)F)c(F)c2n1)[C@@]12CCCN1C[C@H](F)C2 [Example 179, 3-(6-chloro-8-fluoro-4-((1S,7S,8S)-8-fluoro-5-oxa-2-azabicyclo[5.1.0]octan-2-yl)-2-(((2R,7aS)-2-fluorotetrahydro-1H-pyrrolizin-7a(5H)-yl)methoxy-d2)quinazolin-7-yl)-5-methyl-4-(trifluoromethyl)aniline]	0.5 to 10 µM
[2H]C([2H])(Oc1nc(N2CCOC[C@H]3[C@H](F)[C@H]32)c2ccc(-c3cc(N)cc(C)c3C(F)(F)F)c(F)c2n1)[C@@]12CCCN1C[C@H](F)C2 [Example 180, 3-(8-fluoro-4-((1S,7S,8S)-8-fluoro-5-oxa-2-azabicyclo[5.1.0]octan-2-yl)-2-(((2R,7aS)-2-fluorotetrahydro-1H-pyrrolizin-7a(5H)-yl)methoxy-d2)quinazolin-7-yl)-5-methyl-4-(trifluoromethyl)aniline]	0.5 to 10 µM
[2H]C([2H])(Oc1nc(N2CCOC[C@@H]3[C@@H](F)[C@@H]32)c2cc(Cl)c(-c3cc(N)cc(C)c3C(F)(F)F)c(F)c2n1)[C@@]12CCCN1C[C@H](F)C2 [Example 181, 3-(6-chloro-8-fluoro-4-((1R,7R,8R)-8-fluoro-5-oxa-2-azabicyclo[5.1.0]octan-2-yl)-2-(((2R,7aS)-2-fluorotetrahydro-1H-pyrrolizin-7a(5H)-yl)methoxy-d2)quinazolin-7-yl)-5-methyl-4-(trifluoromethyl)aniline]	0.5 to 10 µM
[2H]C([2H])(Oc1nc(N2CCOC[C@@H]3[C@@H](F)[C@@H]32)c2ccc(-c3cc(N)cc(C)c3C(F)(F)F)c(F)c2n1)[C@@]12CCCN1C[C@H](F)C2 [Example 182, 3-(8-fluoro-4-((1R,7R,8R)-8-fluoro-5-oxa-2-azabicyclo[5.1.0]octan-2-yl)-2-(((2R,7aS)-2-fluorotetrahydro-1H-pyrrolizin-7a(5H)-yl)methoxy-d2)quinazolin-7-yl)-5-methyl-4-(trifluoromethyl)aniline]	0.5 to 10 µM
[2H]C([2H])(Oc1nc(N2CCOC[C@H]3[C@H](F)[C@H]32)c2cc(Cl)c(-c3cc(N)cc(C4CC4)c3C(F)(F)F)c(F)c2n1)[C@@]12CCCN1C[C@H](F)C2 [Example 183, 3-(6-chloro-8-fluoro-4-((1S,7S,8S)-8-fluoro-5-oxa-2-azabicyclo[5.1.0]octan-2-yl)-2-(((2R,7aS)-2-fluorotetrahydro-1H-pyrrolizin-7a(5H)-yl)methoxy-d2)quinazolin-7-yl)-5-cyclopropyl-4-(trifluoromethyl)aniline]	0.5 to 10 µM
[2H]C([2H])(Oc1nc(N2CCOC[C@@H]3[C@@H](F)[C@@H]32)c2cc(Cl)c(-c3cc(N)cc(C4CC4)c3C(F)(F)F)c(F)c2n1)[C@@]12CCCN1C[C@H](F)C2 [Example 184, 3-(6-chloro-8-fluoro-4-((1R,7R,8R)-8-fluoro-5-oxa-2-azabicyclo[5.1.0]octan-2-yl)-2-(((2R,7aS)-2-fluorotetrahydro-1H-pyrrolizin-7a(5H)-yl)methoxy-d2)quinazolin-7-yl)-5-cyclopropyl-4-(trifluoromethyl)aniline]	0.5 to 10 µM
